Data reported in patent US8236769B2, “Agent for improving insulin resistance” (Morinaga Milk Industry Co., Ltd., priority 2005, dated 2012).

Key:
MCP-1 = assay: Production quantity of MCP-1 of epididymal adipose tissue from treated ZDF rats (culture supernatant, ELISA); format: in vivo, rat; conditions: 45th day
Protocol: (§1) In Example 2, the same Test Sample and the negative sample as those prepared in Example 1 were used.
(§2) After 1 hour of the culture, culture supernatants were collected, and concentrations of TNF-α and MCP-1 in the culture supernatants were measured by ELISA method (Biosource).

TNF-α = assay: Production quantity of TNF-α of epididymal adipose tissue from treated ZDF rats (culture supernatant, ELISA); format: in vivo, rat; conditions: 45th day
Protocol: as §1, §2

[1] = WO 2006/035525; cited from earlier work
[2] = system: ZDF (Zucker Diabetic Fatty) rats; assay: Insulin tolerance test in ZDF rats; format: in vivo, rat; conditions: 35th day; 37.5 μg/kg orally once a day; human insulin 10 U/Kg i.p. after 4 hours fasting; 15 to 60 minutes after insulin; FIG. 1
Protocol: In Example 3, the same Test Sample and the negative sample as those prepared in Examples 1 and 2 were used.
The semice were divided into groups, each consisting of 6 rats. […] In the present example, the insulin tolerance test was performed in such a manner that: the rats were fasted for 4 hours, and were then intraperitoneally administered with 10 U/Kg of body weight of a human insulin (Eli Lily and Company); and changes with time in blood glucose level were measured from the initiation of the administration of the insulin to after 60 minutes later.

[3] = system: ZDF (Zucker Diabetic Fatty) rats; conditions: serum
Protocol: 3-O-β-D-glucopyranosyl-4-methylergost-7-en-3-ol produced in Preparation Example 1 was dissolved in DMSO, and the concentration was adjusted to 15 μg/ml with distilled water to thereby prepare Test Sample. In this case, the final DMSO concentration was adjusted to 0.2%. Furthermore, a solution without the test samples was prepared as a negative sample.
6-week-old male ZDF rats (purchased from Charles River Laboratories, Inc., USA) were preliminarily fed with a high-fat diet (Research Diet, Inc.) for 1 month. These rats were divided into groups, each consisting of 6 rats. Each of the groups of rats was orally administered with 1 ml per 400 g of body weight (37.5 μg/kg of body weight) of the Test Sample or the negative sample once a day everyday with a sonde. On the 45th day from the initiation of the administration of the samples, blood was collected from the rats under fasting, and the level of the free fatty acid in serum were measured by using NEFA C-test Wako (Wako Pure Chemical Industries, Ltd.).

[4] = adipose tissue, Tukey-Kramer's test
[5] = culture supernatant of epididymal fat tissue after 1 hour at 37° C., 37.5 μg/kg orally once a day

Q: Which “inhibitory effect on the production of MCP-1 compared with negative sample group” value (MCP-1; [4]) does the source give for `CC1C(O[C@@H]2O[C@H](CO)[C@@H](O)[C@H](O)[C@H]2O)CC[C@@]2(C)C1CC=C1[C@@H]3CC[C@H]([C@H](C)CC[C@H](C)C(C)C)[C@@]3(C)CC[C@@H]12` (stereo partly drawn) [Test Sample, 3-O-β-D-glucopyranosyl-4-methylergost-7-en-3-ol] here?
A: significant inhibitory effects

Q: And the MCP-1 (MCP-1; [5])?
A: 23.3 ± 3.6 pg/mL

Q: And the “inhibitory effect on the production of TNF-α compared with negative sample group” value (TNF-α; [4])?
A: significant inhibitory effects

Q: What about the TNF-α (TNF-α; [5]) of the same compound?
A: 117.4 ± 47.9 pg/mL

Q: And the “effect on hemoglobin Alc level” value [1]?
A: decreasing hemoglobin Alc level

Q: And the effect on hyperglycemia [1]?
A: improving hyperglycemia

Q: And the “blood glucose level in insulin tolerance test compared with negative sample group” value [2]?
A: lower blood glucose levels

Q: What about the “free fatty acid levels compared with the group administered with the negative sample” value ([3]; 45th day, 37.5 μg/kg orally once a day, decreased to this % of negative sample group) of the same compound?
A: 53%

Q: And the Free fatty acid ([3]; fasting, 45th day of administration, 37.5 μg/kg of body weight orally once a day, male ZDF rats on high-fat diet)?
A: 1.948 ± 0.648 mEq/l
